Experimental data published in ChEMBL document CHEMBL1955803, “Preclinical in vivo evaluation of efficacy, pharmacokinetics, and pharmacodynamics of a novel MEK1/2 kinase inhibitor RO5068760 in multiple tumor models” (Mol Cancer Ther, 2010).
Calls of active or inactive are those of the source. The rule behind the calls is not given here.

Key:
[1] = AUC (0 to 12 hrs) in human MIAPaCa2 cells expressing K-Ras G12C mutant xenografted nude mouse at 50 mg/kg, po bid; format: ADME, organism-based, MIA PaCa-2; design: time < 12 hr, dose 50 mg/kg, route oral; details: in vivo
[2] = molecular target: T1, Dual specificity mitogen-activated protein kinase kinase; MEK1/2 (Homo sapiens) (UniProt P36507+Q02750); details: LOX, 2 to 10 uM
T1 sequence (P36507 whole entry, looked up): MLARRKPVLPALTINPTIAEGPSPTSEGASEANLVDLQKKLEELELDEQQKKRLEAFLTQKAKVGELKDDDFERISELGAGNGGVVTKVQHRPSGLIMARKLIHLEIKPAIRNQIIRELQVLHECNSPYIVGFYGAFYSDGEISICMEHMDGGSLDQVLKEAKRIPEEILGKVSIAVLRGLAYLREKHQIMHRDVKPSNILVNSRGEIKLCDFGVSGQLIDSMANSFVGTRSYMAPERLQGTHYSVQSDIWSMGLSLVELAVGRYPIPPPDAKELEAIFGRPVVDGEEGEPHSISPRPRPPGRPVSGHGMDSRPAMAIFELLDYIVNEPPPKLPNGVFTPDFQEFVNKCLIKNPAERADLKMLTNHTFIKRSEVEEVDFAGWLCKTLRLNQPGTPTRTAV
T1 sequence (Q02750 whole entry, looked up): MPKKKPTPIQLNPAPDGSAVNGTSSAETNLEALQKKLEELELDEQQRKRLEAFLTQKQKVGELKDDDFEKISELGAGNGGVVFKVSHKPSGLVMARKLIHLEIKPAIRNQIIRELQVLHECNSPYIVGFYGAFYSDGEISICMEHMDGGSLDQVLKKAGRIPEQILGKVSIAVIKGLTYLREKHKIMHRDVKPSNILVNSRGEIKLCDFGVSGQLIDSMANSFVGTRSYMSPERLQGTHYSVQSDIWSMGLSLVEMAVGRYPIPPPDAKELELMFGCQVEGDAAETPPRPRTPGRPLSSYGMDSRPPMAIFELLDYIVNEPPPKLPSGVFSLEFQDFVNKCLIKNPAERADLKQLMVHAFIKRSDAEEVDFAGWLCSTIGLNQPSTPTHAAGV
Description: Inhibition of MEK1/2 in human LOX cells assessed as upregulation of p27 expression at 2 to 10 uM by Western blot analysis

Mus musculus [3] = assay: Inhibition of MEK-mediated ERK phosphorylation in tumor of human HT-29 cells expressing B-Raf V600E mutant xenografted nude mouse at 50 mg/kg, po after 4 hrs by Western blot analysis relative to control; format: functional; details: HT-29, 4 h
HT-29 = assay: Induction of apoptosis in human HT-29 cells; format: functional, cell-based
[4] = AUC (0 to 12 hrs) in human H460 cells expressing K-Ras Q61H mutant xenografted nude mouse at 50 mg/kg, po bid; format: ADME, organism-based; design: time < 12 hr, dose 50 mg/kg, route oral; details: in vivo
[5] = AUC (0 to 24 hrs) in human H460 cells expressing K-Ras Q61H mutant xenografted nude mouse at 200 mg/kg, po qd; format: ADME, organism-based; design: time < 24 hr, dose 200 mg/kg, route oral; details: in vivo
[6] = Cmax in human MIAPaCa2 cells expressing K-Ras G12C mutant xenografted nude mouse at 100 mg/kg, po bid; format: ADME, organism-based, MIA PaCa-2; design: dose 100 mg/kg, route oral; details: in vivo
[7] = Drug level in human LOX cells expressing B-Raf V600E mutant xenografted nude mouse tumor at 100 mg/kg, po after 2 hrs; format: ADME, organism-based, Neoplasm; design: dose 100 mg/kg, route oral; details: read-out: Drug uptake
[8] = Antitumor activity against human LOX cells expressing B-Raf V600E mutant xenografted in nude mouse assessed as tumor growth inhibition at 200 mg/kg, po bid; format: functional; details: read-out: GI
Mus musculus [9] = assay: Inhibition of MEK-mediated ERK phosphorylation in tumor of human LOX cells expressing B-Raf V600E mutant xenografted nude mouse at 100 mg/kg, po after 2 hrs by Western blot analysis relative to control; format: functional
Cynomolgus monkey = assay: Inhibition of MEK in po dosed cynomolgus monkey peripheral blood mononuclear cells assessed as inhibition of PMA-stimulated ERK phosphorylation after 1 to 24 hrs by flow cytometry; format: functional, organism-based; details: Macaca fascicularis
Mus musculus [10] = assay: Average drug concentration in human H460 cells expressing K-Ras Q61H mutant xenografted nude mouse plasma at 50 mg/kg, po bid; format: ADME, organism-based; design: dose 50 mg/kg, route oral; details: in vivo
[11] = molecular target: T1, Dual specificity mitogen-activated protein kinase kinase; MEK1/2 (Homo sapiens); details: LOX, 2 to 10 uM; remark: listed apart in the source
Description: Inhibition of MEK1/2 phosphorylation in human LOX cells at 2 to 10 uM by Western blot analysis

[12] = Cmax in human LOX cells expressing B-Raf V600E mutant xenografted nude mouse at 12.5 mg/kg, po bid; format: ADME, organism-based; design: dose 12.5 mg/kg, route oral; details: in vivo
[13] = molecular target: T1, Dual specificity mitogen-activated protein kinase kinase; MEK1/2 (Homo sapiens); details: HT-29, 2 to 10 uM
Description: Inhibition of MEK1/2 in human HT-29 cells assessed as inhibition of ERK1/2 phosphorylation at 2 to 10 uM by Western blot analysis

[14] = Cmax in human H460 cells expressing K-Ras Q61H mutant xenografted nude mouse at 100 mg/kg, po bid; format: ADME, organism-based; design: dose 100 mg/kg, route oral; details: in vivo

AUC at 12 h [1]: 18800 ng·h/mL
inhibition [2]: Active
AUC at 12 h [4]: 23300 ng·h/mL
AUC at 24 h [5]: 122000 ng·h/mL
Cmax [6]: 9650 ng/mL
concentration at 2 h [7]: 3040 ng/g
EC50 (Cynomolgus monkey): 1410 nM
Cave (Mus musculus [10]): 1942 ng/mL
inhibition [11]: Active
Cmax [12]: 1170 ng/mL
inhibition [13]: Active
Cmax [14]: 16900 ng/mL
Structure (SMILES): C[C@@H](c1ccccc1)[C@@H](C(=O)Nc1ccc(I)cc1F)N1C(=O)N[C@H](c2ccc(OC[C@H](O)CO)cc2)C1=O
inhibition in vivo at 50 mg/kg (Mus musculus [3]): 81%
Activity (HT-29): Active
inhibition in vivo at 200 mg/kg [8]: > 100%
inhibition in vivo at 100 mg/kg (Mus musculus [9]): 86%
